# Columns and labels:
# HTT [1] = test: Gene panel canonical junction qPCR assay, HTT CJ mRNA (Table 7); type: cell-based, human; details: read-out: HTT CJ mRNA decrease IC50
# Summary of the method: (§1)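 IC50 values reflect compound concentration giving 50% reduction in canonical exon–exon junction mRNA. Cell lysates from A673 or K562 treatments were reverse-transcribed and probed by junction-spanning qPCR, normalized to a housekeeper and vehicle, then fitted to a 4-parameter logistic equation.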
# [2] = system: HiBit-tagged HTT in K562 cells; test: HiBiT protein abundance assay, HTT; type: cell-based, human; details: HiBiT-modified K562 cells, 24 hours, luminescence
# Protocol: (§2) Compounds described herein were used to screen for effects on quantitative protein abundance using a HiBit assay system (Promega). Quantitative protein abundance was determined by measuring the protein levels of HiBit-tagged protein targets expressed in cell culture via luminescence using the Nano-Glo HiBiT Lytic Detection System, which uses a split complementation assay format to reconstitute NanoBiT enzyme to generate a luminescent signal. A protein abundance assay was developed such that endogenous protein targets could be modified with the HiBiT peptide tag and their abundance could be assessed after compound treatment. Briefly, K562 cell lines containing a HiBiT-modification were treated with various compounds described herein (e.g., compounds of Formulas (I)). After treatment for 24 hours, the protein abundance of a specific target was determined by measuring luminescence.
# (§3) Cells were maintained in IMDM with 10% FBS. Before the assay, cells were diluted with […] growth media (IMDM+[…] media) and were seeded in a 384-well plate at a density of 10000 cells/well (for each cell line listed in Table 8). Each compound was prepared as a 10-point 3-fold serial dilution in DMSO with the top dose at a final concentration of 10 μM in the well. Unmodified K562 cells were added at the previously specified density with DMSO to serve as an assay baseline and positive control (PC) and DMSO only with the respective modified cell lines was added to the negative control (NC) columns. Final DMSO concentration was kept at or below 0.25% o. Treated cell plates were placed in an incubator at 37° C. with […] for 24 hours. After 24 hours, 25 μL of Complete HiBit Lytic reagent was added to each well at room temperature (e.g. one plate requiring 10 mL Lytic Buffer, 100 μL LgBiT Protein, 200 μL Lytic Substrate), shaken for 5 minutes at 600 RPM, then left to sit for 10 minutes for signal to stabilize before reading on a Spark Cyto plate reader (Tecan) with a 500 ms measurement time.
# (§4) To determine compound effects on protein abundance of each target in Table 9, the percent response for each respective cell line was calculated at each compound concentration as follows:
# (§5) For the normalized response at each concentration, a four-parameter logistical regression was fit to the data and the response was interpolated at the […] to determine a concentration for protein abundance at 50% o (IC50) the untreated control.
# [3] = system: HiBit-tagged MYB in K562 cells; test: HiBiT protein abundance assay, MYB; type: cell-based, human; details: HiBiT-modified K562 cells, 24 hours, luminescence
# Protocol: as §2, §3, §4, §5
# [4] = system: HiBit-tagged Target C in K562 cells; test: HiBiT protein abundance assay, Target C; type: cell-based, human; details: HiBiT-modified K562 cells, 24 hours, luminescence
# Protocol: as §2, §3, §4, §5
# Target C = test: Gene panel canonical junction qPCR assay, Target C CJ mRNA (Table 7); type: cell-based, human; details: Homo sapiens, read-out: Target C CJ mRNA decrease IC50
# Summary of the method: as §1
# HTT [5] = test: RT-qPCR splicing assay, HTT AJ/CJ mRNA; type: cell-based, human; details: A673 or K562 cells; for IC50: decrease in canonical junction mRNA; for AC50: increase in alternative junction mRNA
# Summary of the method: (§6)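 Cells: A673 (DMEM/10% FBS) or K562 (IMDM/10% FBS). Dosing: 11-pt 3-fold, top 10 uM final, DMSO ≤0.25%, 24 h, 37° C. Readout: one-step RT-qPCR on lysate, CJ vs AJ isoforms; ΔCt vs housekeeper, ΔΔCt vs DMSO, 2^(−ΔΔCt) RQ → % response.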
# MYB [6] = test: Gene panel canonical junction qPCR assay, MYB CJ mRNA (Table 7); type: cell-based; details: Homo sapiens, read-out: MYB CJ mRNA decrease IC50
# Summary of the method: as §1
# SMN2 = test: Gene panel canonical junction qPCR assay, SMN2 CJ mRNA (Table 7); type: cell-based; details: Homo sapiens, read-out: SMN2 CJ mRNA decrease IC50
# Summary of the method: as §1
# MYB [7] = test: RT-qPCR splicing assay, MYB AJ/CJ mRNA; type: cell-based; details: Homo sapiens, A673 or K562 cells, 24 hours; for IC50: decrease in canonical junction mRNA; for AC50: increase in alternative junction mRNA
# Summary of the method: as §6
IC50 (HTT [1]; Homo sapiens) [µM],IC50 (Target C) [µM],"IC50 (HTT [5]; Homo sapiens, 24 h) [µM]",IC50 (MYB [6]) [µM],IC50 (SMN2) [µM],IC50 (MYB [7]) [µM],SMILES,IC50 [2] [µM],IC50 [3] [µM],IC50 [4] [µM],"AC50 (HTT [5]; Homo sapiens, 24 h) [µM]",IC50 (HTT [1]) [µM],IC50 (HTT [5]; 24 hours) [µM],AC50 (HTT [5]; 24 hours) [µM],AC50 (MYB [7]) [µM]
> 10,1 to 10,> 10,,,,CC1(C)CC(Nc2ccc3c(n2)CCOc2cc(-c4cn[nH]c4)ccc2-3)CC(C)(C)N1 [Compound 141],1 to 10,< 0.1,1 to 10,> 10,,,,
< 0.1,< 0.1,< 0.1,0.1 to 1,< 0.1,0.1 to 1,"CC(C)(C)N[C@@H]1CCN(c2ccc3c(n2)OCc2cc(-c4cn[nH]c4)ccc2-3)C1 [Compound 257, (3R)—N-tert-butyl-1-[8-(1H-pyrazol-4-yl)-6H-isochromeno[3,4-b]pyridin-3-yl]pyrrolidin-3-amine]",,,,< 0.1,,,,0.1 to 1
< 0.1,0.1 to 1,< 0.1,0.1 to 1,< 0.1,0.1 to 1,COc1cc(-c2ccc3c(c2)COc2nc(N4CC[C@@H](NC(C)(C)C)C4)ncc2-3)cnn1 [Compound 278],,,,0.1 to 1,,,,0.1 to 1
0.1 to 1,1 to 10,0.1 to 1,0.1 to 1,0.1 to 1,0.1 to 1,"CN1CCC12CCN(c1ccc3c(n1)OCc1cc(-c4cn[nH]c4)ccc1-3)C2 (stereo not drawn) [Compound 220, 3-(1-methyl-1,6-diazaspiro[3.4]octan-6-yl)-8-(1H-pyrazol-4-yl)-6H-isochromeno[3,4-b]pyridine]",,,,0.1 to 1,,,,0.1 to 1

SMILES,IC50 (HTT [1]; Homo sapiens) [µM],IC50 (Target C) [µM],"IC50 (HTT [5]; Homo sapiens, 24 h) [µM]",IC50 (MYB [6]) [µM],IC50 (SMN2) [µM],IC50 (MYB [7]) [µM],IC50 [2] [µM],IC50 [3] [µM],IC50 [4] [µM],"AC50 (HTT [5]; Homo sapiens, 24 h) [µM]",IC50 (HTT [1]) [µM],IC50 (HTT [5]; 24 hours) [µM],AC50 (HTT [5]; 24 hours) [µM],AC50 (MYB [7]) [µM]
c1cnn(-c2ccc3c(c2)OCc2nc(N[C@@H]4C[C@H]5CC[C@@H](C4)N5)ccc2-3)c1 [Compound 119],,1 to 10,,,,,0.1 to 1,1 to 10,1 to 10,,> 10,> 10,> 10,
CN(c1ccc2c(n1)OCc1cc(-c3cnn(C)c3)ccc1-2)[C@@H]1C[C@H]2CC[C@@H](C1)N2 [Compound 150],< 0.1,0.1 to 1,< 0.1,0.1 to 1,> 10,0.1 to 1,,,,< 0.1,,,,0.1 to 1
c1cnn(-c2ccc3c(c2)COc2nc(S[C@@H]4C[C@H]5CC[C@@H](C4)N5)ccc2-3)c1 [Compound 193],1 to 10,> 10,> 10,1 to 10,> 10,1 to 10,,,,> 10,,,,> 10

# Source: patent US20240400584A1, “COMPOUNDS AND METHODS FOR MODULATING SPLICING” (REMIX THERAPEUTICS INC., priority 2021, published 2024)
